In patent US6177438A, “Morphinan derivatives and pharmaceutical use thereof” (priority 1993, dated 2001):
pEC50, pIC50: −log10 of the molar value. Structures can show the parent of a compound that is named as a salt. Where two headings read alike, the source gives them in different places.

Tests used:
[1] = test system: acetic acid-induced writhing in ddy mice; experiment: animal or person; format: in vivo, 5 week old ddy mice; conditions: s.c. 15 minutes before acetic acid
Method: 5 week old ddy mice were used in this test. After intraperitoneal administration of 0.1 ml of 0.6% aqueous acetic acid per 10 g of body weight, the number of writhing reactions that occurred in 10 minutes starting 10 minutes after administration was evaluated for the indicator. The test drug was administered subcutaneously into the backs of the animals 15 minutes before administration of acetic acid.

[2] = test system: cultured nerve cells (cerebral cortex); experiment: cells; conditions: Rattus norvegicus, Cerebral cortex neuron, 24 h, read-out: ED50 (protection against glutamic acid toxicity)
[3] = Diuretic action (urine output for 5 hours after physiological saline loading in rats); format: in vivo, male Wistar rats; conditions: Rattus norvegicus, sc, 5 hours after saline 20 ml/kg p.o.; for ED (200% urine output): dose giving urine output of 200 (non-dosed group = 100); for ED (500% urine output): dose giving urine output of 500 (non-dosed group = 100)
Outline: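 Male Wistar rats (7-8 weeks), water withheld 1 h, bladder emptied, drug given subcutaneously; 30 min later 20 ml/kg saline orally. Urine collected 5 h after saline loading in metabolic cages; ED200 and ED500 are doses giving urine output of 200 and 500 relative to non-dosed group at 100.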

[4] = test system: cultured nerve cells (cerebral cortex); conditions: 10 mM glutamic acid, 24 hours
[5] = test system: extracted mouse vas deferens preparation; experiment: Opioid activity test using an extracted mouse vas deferens preparation (suppression of electrically induced contractions); design: species or system male ddy mouse; conditions: electrical stimulus 0.1 Hz, 37° C.
Outline: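 Male ddY mouse vas deferens in Krebs-Henseleit at 37° C, 5% CO2/95% O2, field-stimulated at 0.1 Hz, 5.0 ms; isometric contractions recorded. After adding naloxone, NTI or norBNI, test compound was added cumulatively after ~20 min; Ke derived from the difference in agonist efficacies.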

μ receptor = target: T1, μ receptor (Mus musculus, UniProt P42866); experiment: Opioid activity test using an extracted mouse vas deferens preparation, Ke with naloxone; design: species or system male ddy mouse; conditions: naloxone added
T1 construct: naloxone as mu antagonist (printed 'agonist')
T1 sequence (P42866 whole entry): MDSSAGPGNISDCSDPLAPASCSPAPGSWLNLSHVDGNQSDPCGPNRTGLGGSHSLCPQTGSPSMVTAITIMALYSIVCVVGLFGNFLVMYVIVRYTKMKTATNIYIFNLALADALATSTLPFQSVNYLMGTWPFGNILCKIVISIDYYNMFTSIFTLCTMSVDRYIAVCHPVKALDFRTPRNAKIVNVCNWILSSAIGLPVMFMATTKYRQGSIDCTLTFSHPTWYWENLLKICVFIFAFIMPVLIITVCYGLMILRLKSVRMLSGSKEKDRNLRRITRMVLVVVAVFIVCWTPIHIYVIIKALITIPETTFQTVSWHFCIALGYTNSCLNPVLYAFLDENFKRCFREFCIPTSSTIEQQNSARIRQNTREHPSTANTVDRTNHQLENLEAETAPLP

δ receptor = target: T2, δ receptor (Mus musculus, UniProt P32300); design: species or system male ddy mouse; conditions: for Ke, NTI: mouse vas deferens, δ, NTI added
T2 construct: The vas deferens extracted from the animal was suspended in a Magnus tube; from tissue; host or cells: mouse (male ddy) vas deferens
T2 sequence (P32300 whole entry): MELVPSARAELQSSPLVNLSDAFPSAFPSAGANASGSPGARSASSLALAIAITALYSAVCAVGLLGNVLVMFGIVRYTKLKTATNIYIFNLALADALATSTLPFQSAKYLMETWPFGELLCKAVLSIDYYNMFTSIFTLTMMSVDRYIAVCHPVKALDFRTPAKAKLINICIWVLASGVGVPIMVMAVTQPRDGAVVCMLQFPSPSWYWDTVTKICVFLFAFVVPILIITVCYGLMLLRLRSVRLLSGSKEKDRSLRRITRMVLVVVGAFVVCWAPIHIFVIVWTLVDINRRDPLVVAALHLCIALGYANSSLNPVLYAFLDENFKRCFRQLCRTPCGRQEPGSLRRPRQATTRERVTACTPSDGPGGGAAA

κ receptor = target: T3, κ receptor (Mus musculus, UniProt P33534); experiment: Opioid activity test using an extracted mouse vas deferens preparation, Ke with norBNI; design: species or system male ddy mouse; conditions: for Ke, norBNI: κ, norBNI added; for receptor selectivity of agonist (κ): in words
T3 construct: from tissue; host or cells: mouse (male ddy) vas deferens
T3 sequence (P33534 whole entry): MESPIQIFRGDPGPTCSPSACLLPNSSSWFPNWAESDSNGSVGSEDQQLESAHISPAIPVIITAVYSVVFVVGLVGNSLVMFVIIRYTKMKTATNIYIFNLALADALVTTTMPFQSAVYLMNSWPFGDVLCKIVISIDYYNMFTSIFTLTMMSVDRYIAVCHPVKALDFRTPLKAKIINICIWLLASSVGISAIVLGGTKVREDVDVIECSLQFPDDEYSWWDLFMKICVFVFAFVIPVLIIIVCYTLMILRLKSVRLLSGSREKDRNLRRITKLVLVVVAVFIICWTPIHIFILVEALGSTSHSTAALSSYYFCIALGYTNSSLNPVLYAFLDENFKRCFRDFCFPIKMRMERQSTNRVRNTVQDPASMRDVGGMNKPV

[6] = Mus musculus, sc, read-out: ED50

Row | SMILES | ED50 [1, 6] | pEC50 [2] | ED (200% urine output) [3] | ED (500% urine output) [3] | Protective action against cytotoxicity caused by glutamic acid (in words) [4] | pIC50 [5] | Ke, Naloxone (μ receptor) | receptor selectivity of agonist (δ) (δ receptor) | Ke, NTI (δ receptor) | Ke, norBNI (κ receptor) | receptor selectivity of agonist (κ) (κ receptor) | ED50 [1]
1 | CN(C(=O)OCc1ccccc1)[C@@H]1CC[C@@]2(O)[C@H]3Cc4ccc(O)c5c4[C@@]2(CCN3CC2CC2)[C@H]1O5 [Compound 56, 17-cyclopropylmethyl-3,14β-dihydroxy-4,5α-epoxy-6β-(N-methylbenzyloxycarbamido)morphinan.cndot.hydrochloride] | 0.00802 mg/kg | 5.28 | 0.0028 mg/kg | 0.0518 mg/kg | clearly demonstrated action that protects nerve cells from cytotoxicity caused by glutamic acid |  |  |  |  |  |  | 
2 | CN(C(=O)C1CCCCC1)[C@H]1CC[C@@]2(O)[C@H]3Cc4ccc(O)c5c4[C@@]2(CCN3CC2CC2)[C@H]1O5 [Compound 33, 17-cyclopropylmethyl-3,14β-dihydroxy-4,5α-epoxy-6α-(N-methylcyclohexylcarboxyamido)morphinan.cndot.hydrochloride] | 0.08 mg/kg | 5.45 |  |  | clearly demonstrated action that protects nerve cells from cytotoxicity caused by glutamic acid |  |  |  |  |  |  | 
3 | CN(C(=O)Cc1cccc(C(F)(F)F)c1)[C@H]1CC[C@@]2(O)[C@H]3Cc4ccc(O)c5c4[C@@]2(CCN3CC2CC2)[C@H]1O5 [Compound 108, 17-cyclopropylmethyl-3,14β-dihydroxy-4,5α-epoxy-6α-(N-methyl-3-trifluoromethylphenylacetamido)morphinan.cndot.hydrochloride] | 0.0064 mg/kg | 6.60 | 0.021 mg/kg | 5.11 mg/kg | clearly demonstrated action that protects nerve cells from cytotoxicity caused by glutamic acid |  |  |  |  |  |  | 
4 | CN(C(=O)C#Cc1ccccc1)[C@H]1CC[C@@]2(O)[C@H]3Cc4ccc(O)c5c4[C@@]2(CCN3CC2CC2)[C@H]1O5 [Compound 84, 17-cyclopropylmethyl-3,14β-dihydroxy-4,5α-epoxy-6α-(N-methyl-3-phenylpropiolamido)morphinan.cndot.hydrochloride] | 0.0058 mg/kg | 5.57 | 0.0028 mg/kg | 0.0469 mg/kg | clearly demonstrated action that protects nerve cells from cytotoxicity caused by glutamic acid | 8.68 | 35.4 nM | selective agonists for δ receptors | 0.309 nM | 5.69 nM |  | 
5 | CN(C(=O)C#Cc1ccccc1)[C@@H]1CC[C@@]2(O)[C@H]3Cc4ccc(O)c5c4[C@@]2(CCN3CC2CC2)[C@H]1O5 [Compound 101, 17-cyclopropylmethyl-3,14β-dihydroxy-4,5α-epoxy-6β-(N-methyl-3-phenylpropiolamido)morphinan.cndot.hydrochloride] | 0.0066 mg/kg | 4.91 | 0.0089 mg/kg | 0.226 mg/kg | clearly demonstrated action that protects nerve cells from cytotoxicity caused by glutamic acid | 9.57 | 25.4 nM |  | 31.6 nM | 0.0425 nM | selective agonists for κ receptors | 
6 | CN(C(=O)COc1ccccc1)[C@@H]1CC[C@@]2(O)[C@H]3Cc4ccc(O)c5c4[C@@]2(CCN3CC2CC2)[C@H]1O5 [Compound 58, 17-cyclopropylmethyl-3,14β-dihydroxy-4,5α-epoxy-6β-(N-methylphenoxyacetamido)morphinan.cndot.tartrate] | 0.19 mg/kg | 4.78 |  |  | clearly demonstrated action that protects nerve cells from cytotoxicity caused by glutamic acid |  |  |  |  |  |  | 
7 | CN(C(=O)/C=C/c1ccccc1)[C@@H]1CC[C@@]2(O)[C@H]3Cc4ccc(O)c5c4[C@@]2(CCN3CC2CC2)[C@H]1O5 [Compound 99, 17-cyclopropylmethyl-3,14β-dihydroxy-4,5α-epoxy-6β-(N-methylcinnararido)morphinan.cndot.hydrochloride] |  | 4.81 | 0.0011 mg/kg | 0.0309 mg/kg | clearly demonstrated action that protects nerve cells from cytotoxicity caused by glutamic acid | 9.17 | 94.5 nM |  |  | 0.652 nM | selective agonists for κ receptors | 0.0018 mg/kg
8 | CN(C(=O)Cc1ccc(Cl)c(Cl)c1)[C@@H]1CC[C@@]2(O)[C@H]3Cc4ccc(O)c5c4[C@@]2(CCN3CC2CC2)[C@H]1O5 [Compound 53, 17-cyclopropylmethyl-4,5α-epoxy-3,14β-dihydroxy-6β-(N-methyl-3,4-dichlorophenylacetoamido)morphinan.cndot.hydrochloride] | 0.46 mg/kg | 5.60 | 0.135 mg/kg | 0.658 mg/kg | clearly demonstrated action that protects nerve cells from cytotoxicity caused by glutamic acid | 7.99 |  |  | 1676 nM | 0.21 nM | selective agonists for κ receptors | 
9 | CN(C(=O)CCc1ccccc1)[C@@H]1CC[C@@]2(O)[C@H]3Cc4ccc(O)c5c4[C@@]2(CCN3CC2CC2)[C@H]1O5 [Compound 57, 17-cyclopropylmethyl-3,14β-dihydroxy-4,5α-epoxy-6β-(N-methyl-3-phenylpropionamido)morphinan.cndot.hydrochloride] | 0.04 mg/kg | 4.82 | 0.0424 mg/kg | 1.26 mg/kg | clearly demonstrated action that protects nerve cells from cytotoxicity caused by glutamic acid | 10.60 |  |  | 747 nM | 0.0124 nM | selective agonists for κ receptors | 
10 | CN(C(=O)c1ccccc1)[C@H]1CC[C@@]2(O)[C@H]3Cc4ccc(O)c5c4[C@@]2(CCN3CC2CC2)[C@H]1O5 [Compound 34, 17-cyclopropylmethyl-3,14β-dihydroxy-4,5α-epoxy-6α-(N-methylbenzamido)morphinan.cndot.hydrochloride] | 0.21 mg/kg | 6.74 |  |  | clearly demonstrated action that protects nerve cells from cytotoxicity caused by glutamic acid |  |  |  |  |  |  | 
11 | C[C@H](C(=O)N(C)[C@H]1CC[C@@]2(O)[C@H]3Cc4ccc(O)c5c4[C@@]2(CCN3CC2CC2)[C@H]1O5)c1ccccc1 [Compound 32, 17-cyclopropylmethyl-4,5α-epoxy-3,14β-dihydroxy-6α-[(S)-N-methyl-2-phenylpropionamido]morphinan.cndot.tartrate] | 0.29 mg/kg | 5.67 |  |  | clearly demonstrated action that protects nerve cells from cytotoxicity caused by glutamic acid |  |  |  |  |  |  | 
12 | CCC/C=C/C(=O)N(C)[C@@H]1CC[C@@]2(O)[C@H]3Cc4ccc(O)c5c4[C@@]2(CCN3CC2CC2)[C@H]1O5 [Compound 100, 17-cyclopropylmethyl-3,14β-dihydroxy-4,5α-epoxy-6β-(N-methyl-trans-2-hexenamido)morphinan.cndot.tartrate] | 0.024 mg/kg | 5.76 | 0.0159 mg/kg | 0.811 mg/kg | clearly demonstrated action that protects nerve cells from cytotoxicity caused by glutamic acid | 9.19 | 1797 nM |  |  | 0.0717 nM | selective agonists for κ receptors | 
13 | CN(C(=O)CCCc1ccccc1)[C@H]1CC[C@@]2(O)[C@H]3Cc4ccc(O)c5c4[C@@]2(CCN3CC2CC2)[C@H]1O5 [Compound 35, 17-cyclopropylmethyl-3,14β-dihydroxy-4,5α-epoxy-6α-(N-methyl-4-phenylbutyramido)morphinan.cndot.hydrochloride] | 0.026 mg/kg | 6.19 | 0.0245 mg/kg | 5.19 mg/kg | clearly demonstrated action that protects nerve cells from cytotoxicity caused by glutamic acid |  |  |  |  |  |  | 
14 | CN(C(=O)Cc1ccccc1)[C@H]1CC[C@@]2(O)[C@H]3Cc4ccc(O)c5c4[C@@]2(CCN3CC2CC2)[C@H]1O5 [Compound 23, 17-cyclopropylmethyl-3,14β-dihydroxy-4,5α-epoxy-6α-(N-methylphenylacetamido)morphinan.cndot.hydrochloride] | 0.67 mg/kg | 5.79 |  |  | clearly demonstrated action that protects nerve cells from cytotoxicity caused by glutamic acid |  |  |  |  |  |  | 
